ChEMBL document CHEMBL1201862, “PubChem BioAssay data set” (2004)
Activity calls are given as the source filed them.

Experiments:
Prothrombin = Prothrombin (Homo sapiens, UniProt P00734); assay: Thrombin 1536 HTS Dose Response Confirmation. [Related pubchem assays: 1046 (Thrombin 1536 HTS; hits were confirmed in this assay)]; assay type: functional
Coagulation factor XII = molecular target: T1, Coagulation factor XII (Homo sapiens, UniProt P00748); assay type: functional;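 note: activated factor XIIa alpha cleaving a fluorogenic AMC peptide substrate; inhibitor potency from loss of enzyme activity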
T1 sequence (P00748 whole entry): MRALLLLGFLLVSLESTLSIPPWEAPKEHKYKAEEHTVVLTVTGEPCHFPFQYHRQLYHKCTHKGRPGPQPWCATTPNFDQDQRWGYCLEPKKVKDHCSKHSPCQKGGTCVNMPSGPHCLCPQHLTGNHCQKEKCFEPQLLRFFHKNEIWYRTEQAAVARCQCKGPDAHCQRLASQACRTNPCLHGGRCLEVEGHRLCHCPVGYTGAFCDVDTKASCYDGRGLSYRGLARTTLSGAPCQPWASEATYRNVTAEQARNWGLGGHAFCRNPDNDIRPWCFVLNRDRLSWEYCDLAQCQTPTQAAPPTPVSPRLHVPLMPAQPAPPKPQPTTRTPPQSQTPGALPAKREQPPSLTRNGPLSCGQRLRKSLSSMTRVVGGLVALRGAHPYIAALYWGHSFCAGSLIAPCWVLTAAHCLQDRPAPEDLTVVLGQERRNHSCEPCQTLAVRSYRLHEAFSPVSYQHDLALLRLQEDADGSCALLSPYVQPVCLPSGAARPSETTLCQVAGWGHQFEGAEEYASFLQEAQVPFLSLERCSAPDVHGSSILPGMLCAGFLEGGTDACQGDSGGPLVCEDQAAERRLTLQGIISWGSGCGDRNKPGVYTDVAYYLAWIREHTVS

Estrogen receptor = molecular target: T2, Estrogen receptor (Homo sapiens, UniProt P03372); assay: ERα coactivator recruitment enhancers – biochemical, TR-FRET, ERα LBD, dose response (AID 737)
T2 sequence (P03372 whole entry): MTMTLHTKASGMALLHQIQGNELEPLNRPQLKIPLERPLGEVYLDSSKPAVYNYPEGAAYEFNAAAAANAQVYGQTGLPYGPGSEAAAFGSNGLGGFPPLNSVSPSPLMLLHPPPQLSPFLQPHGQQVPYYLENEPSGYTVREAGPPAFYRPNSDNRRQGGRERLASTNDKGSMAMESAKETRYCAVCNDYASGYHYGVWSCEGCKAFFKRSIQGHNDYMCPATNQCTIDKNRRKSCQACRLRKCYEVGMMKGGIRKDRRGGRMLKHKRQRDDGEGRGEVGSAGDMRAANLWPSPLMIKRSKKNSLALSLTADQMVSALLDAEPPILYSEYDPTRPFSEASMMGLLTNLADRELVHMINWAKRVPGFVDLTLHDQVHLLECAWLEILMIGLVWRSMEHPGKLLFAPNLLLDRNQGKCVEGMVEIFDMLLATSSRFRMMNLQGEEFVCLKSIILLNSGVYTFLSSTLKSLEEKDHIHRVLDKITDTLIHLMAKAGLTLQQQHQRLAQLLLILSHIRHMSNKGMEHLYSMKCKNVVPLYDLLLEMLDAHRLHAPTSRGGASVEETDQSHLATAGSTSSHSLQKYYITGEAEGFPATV

[1] = M. tuberculosis H37Rv growth inhibitors, H37Rv strain (AID 1626); assay type: functional
[2] = molecular target: T3, RNA-binding protein pos-1 (Caenorhabditis elegans, UniProt G5EF15); assay: disruptors of C. elegans POS-1 RNA interaction – biochemical, fluorescence polarization, dose response (AID 1964);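 note: purified POS-1 fused to maltose binding protein made in E. coli; potency of compounds blocking POS-1 binding to fluorescent RNA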
T3 sequence (G5EF15 whole entry): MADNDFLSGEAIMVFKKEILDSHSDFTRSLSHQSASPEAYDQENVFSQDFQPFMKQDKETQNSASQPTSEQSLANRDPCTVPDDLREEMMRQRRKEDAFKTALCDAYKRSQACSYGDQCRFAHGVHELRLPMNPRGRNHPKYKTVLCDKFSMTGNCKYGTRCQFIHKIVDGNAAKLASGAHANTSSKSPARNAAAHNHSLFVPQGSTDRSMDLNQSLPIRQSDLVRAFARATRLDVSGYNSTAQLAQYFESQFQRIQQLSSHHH

[3] = molecular target: T4, Zinc finger protein mex-5 (Caenorhabditis elegans, UniProt Q9XUB2); assay: potency of MEX-5 RNA-binding blockers – biochemical, C. elegans, fluorescence polarization, dose response (AID 1960)
T4 sequence (Q9XUB2 whole entry): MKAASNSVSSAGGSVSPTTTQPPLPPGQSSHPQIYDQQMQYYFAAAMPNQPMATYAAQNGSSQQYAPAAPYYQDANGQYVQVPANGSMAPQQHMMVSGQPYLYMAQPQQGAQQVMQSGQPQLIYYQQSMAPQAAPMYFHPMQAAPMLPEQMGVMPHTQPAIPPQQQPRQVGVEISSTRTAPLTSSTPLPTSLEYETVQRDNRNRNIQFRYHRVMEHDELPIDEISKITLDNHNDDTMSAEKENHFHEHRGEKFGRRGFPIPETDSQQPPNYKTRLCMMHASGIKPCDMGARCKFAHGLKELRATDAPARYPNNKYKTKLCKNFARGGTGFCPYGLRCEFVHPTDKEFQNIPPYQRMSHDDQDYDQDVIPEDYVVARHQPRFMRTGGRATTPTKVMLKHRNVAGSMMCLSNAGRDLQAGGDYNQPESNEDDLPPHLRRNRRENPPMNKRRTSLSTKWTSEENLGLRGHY

Estrogen receptor beta [4] = molecular target: T5, Estrogen receptor beta (Homo sapiens, UniProt Q92731);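 note: recombinant ER-beta bound to coactivator SRC1 peptide in presence of estradiol agonist; inhibitors block coactivator peptide binding and lower the FRET signal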
T5 sequence (Q92731 whole entry): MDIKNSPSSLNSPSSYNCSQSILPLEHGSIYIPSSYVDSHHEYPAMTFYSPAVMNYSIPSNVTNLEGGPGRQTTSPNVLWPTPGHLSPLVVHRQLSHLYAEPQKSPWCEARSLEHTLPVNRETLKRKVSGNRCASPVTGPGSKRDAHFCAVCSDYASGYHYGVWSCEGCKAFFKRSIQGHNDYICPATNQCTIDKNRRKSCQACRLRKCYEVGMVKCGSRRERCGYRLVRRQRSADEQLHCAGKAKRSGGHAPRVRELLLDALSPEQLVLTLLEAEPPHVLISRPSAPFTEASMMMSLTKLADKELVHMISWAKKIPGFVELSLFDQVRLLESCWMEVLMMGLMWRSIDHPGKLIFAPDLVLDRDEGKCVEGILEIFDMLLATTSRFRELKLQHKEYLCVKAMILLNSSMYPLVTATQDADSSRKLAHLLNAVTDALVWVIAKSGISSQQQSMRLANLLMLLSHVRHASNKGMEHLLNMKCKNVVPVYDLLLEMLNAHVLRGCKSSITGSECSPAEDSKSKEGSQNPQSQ

[5] = molecular target: Induced myeloid leukemia cell differentiation protein Mcl-1 (Homo sapiens, UniProt Q07820); assay type: functional
Chain of Induced myeloid leukemia cell differentiation protein Mcl-1 (Q07820 whole entry): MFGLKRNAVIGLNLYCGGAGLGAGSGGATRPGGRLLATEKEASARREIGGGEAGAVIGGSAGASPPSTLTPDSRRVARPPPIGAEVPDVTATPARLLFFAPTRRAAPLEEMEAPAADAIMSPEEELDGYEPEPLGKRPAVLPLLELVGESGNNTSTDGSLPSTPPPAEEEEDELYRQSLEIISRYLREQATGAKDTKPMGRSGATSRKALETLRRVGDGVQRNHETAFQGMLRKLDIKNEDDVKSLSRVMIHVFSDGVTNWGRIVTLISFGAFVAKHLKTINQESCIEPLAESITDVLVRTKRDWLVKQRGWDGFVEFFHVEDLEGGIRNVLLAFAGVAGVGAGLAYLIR

Estrogen receptor beta [6] = molecular target: T5, Estrogen receptor beta; assay: blockers of SRC-3 recruitment to ERβ – biochemical, ELISA, streptavidin-HRP readout, orthogonal assay, confirmation (AID 1060)
[7] = mitochondrial function rescue without frataxin homolog – Friedreich's ataxia, plus single-dose screen, dose response (AID 1465); assay type: functional;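 note: yeast depleted of Yfh1p frataxin homolog grown on glycerol needing respiration; WST-1 tetrazolium dye reduction as measure of cellular dehydrogenase metabolic activity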
[8] = molecular target: 5-hydroxytryptamine receptor 1A (Homo sapiens, UniProt P08908); assay type: functional
Chain of 5-hydroxytryptamine receptor 1A (P08908 whole entry): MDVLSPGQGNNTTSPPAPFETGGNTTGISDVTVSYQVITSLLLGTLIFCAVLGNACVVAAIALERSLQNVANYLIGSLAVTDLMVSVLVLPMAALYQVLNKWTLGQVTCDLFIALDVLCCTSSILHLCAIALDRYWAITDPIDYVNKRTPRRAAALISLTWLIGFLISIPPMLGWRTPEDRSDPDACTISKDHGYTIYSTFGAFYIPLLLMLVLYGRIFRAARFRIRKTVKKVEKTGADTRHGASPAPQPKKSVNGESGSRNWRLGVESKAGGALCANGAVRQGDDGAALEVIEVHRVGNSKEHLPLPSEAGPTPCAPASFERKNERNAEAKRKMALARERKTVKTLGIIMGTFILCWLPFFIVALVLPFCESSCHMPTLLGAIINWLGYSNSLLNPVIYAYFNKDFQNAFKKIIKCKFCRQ

[9] = molecular target: G-protein coupled receptor 183 (Homo sapiens, UniProt P32249); assay: SAR confirmation of small molecule antagonists of the EBI2 receptor via a luminescent beta-arrestin assa.; assay type: functional
Chain of G-protein coupled receptor 183 (P32249 whole entry, the tested form may be a part): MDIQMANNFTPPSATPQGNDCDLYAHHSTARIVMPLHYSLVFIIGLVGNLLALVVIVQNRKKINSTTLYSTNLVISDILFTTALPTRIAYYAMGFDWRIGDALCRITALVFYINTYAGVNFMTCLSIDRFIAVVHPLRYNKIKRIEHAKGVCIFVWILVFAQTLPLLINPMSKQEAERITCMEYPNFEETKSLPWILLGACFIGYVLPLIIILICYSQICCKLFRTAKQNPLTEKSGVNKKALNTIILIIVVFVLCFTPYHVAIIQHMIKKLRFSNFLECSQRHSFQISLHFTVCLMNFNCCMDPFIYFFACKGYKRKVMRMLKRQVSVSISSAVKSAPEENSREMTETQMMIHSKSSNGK

[10] = molecular target: T6, Carboxy-terminal domain RNA polymerase II polypeptide A small phosphatase 1 (Homo sapiens, UniProt Q9GZU7); assay: CTDSP1 inhibitors, concentration-response, biochemical, absorbance readout, ultra-high-throughput screen actives (AID 540297); assay type: functional
T6 sequence (Q9GZU7 whole entry): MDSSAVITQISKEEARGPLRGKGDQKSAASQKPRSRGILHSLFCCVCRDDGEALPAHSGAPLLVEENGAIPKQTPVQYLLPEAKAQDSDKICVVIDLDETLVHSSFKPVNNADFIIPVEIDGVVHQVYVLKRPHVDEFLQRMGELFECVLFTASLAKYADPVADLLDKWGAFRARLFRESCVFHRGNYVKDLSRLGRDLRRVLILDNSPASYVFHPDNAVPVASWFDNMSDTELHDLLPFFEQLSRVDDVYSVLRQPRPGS

COc1cccc(NC(=S)Nc2ccc(Br)cc2Cl)c1
IC50 (Prothrombin): > 50 µM (not active) | IC50 (Coagulation factor XII): > 50 µM (inactive)

COc1ccc(-c2cn3c(C)c(C(=O)Nc4ccncc4)sc3n2)cc1
EC50 (Estrogen receptor): 18.9 µM (active)

Cc1cccc(Oc2ccc(N)cc2)c1
IC50 [1]: > 100 µM (active)

ON=C1/C(=N\O)CC2(C/C1=N/O)OCCO2
EC50 [2]: > 300 µM (not active) | EC50 [3]: 13 µM (active) | IC50 (Estrogen receptor beta [4]): 14.1 µM (active)

CC(C)Cn1c(N)c(C(=O)COC(=O)c2cc(-c3ccco3)nc3ccccc23)c(=O)n(C)c1=O
IC50 [5]: 2.59 µM (active) | IC50 (Estrogen receptor beta [6]): > 50 µM (not active)

COc1ccc2nc(O)c(CN(C(=O)NC3CCCCC3)C3CCCCC3)cc2c1
IC50 [1]: > 100 µM (active)

CC(C(=O)O)N1C(=O)/C(=C/c2cccn2C)SC1=S (stereo unspecified)
EC50 [7]: > 100 µM (active)

CC(=O)Nc1ccc(S(=O)(=O)N(C)c2ccc(O)cc2)cc1
EC50 [8]: > 50 µM (not active)

O=C(/C=C/c1ccc(F)cc1)N1CCN(S(=O)(=O)C2=Cc3ccccc3CC2)CC1
IC50 [9]: 0.00115 µM (active)

N#CC1=C(N)n2c(s/c(=C\c3ccco3)c2=O)=C(C#N)C1c1ccco1 (stereo unspecified)
IC50 [10]: 3.44 µM (active) | IC50 (Estrogen receptor beta [6]): 1.92 µM (not active)

CC(C)c1ccc(S(=O)(=O)N2CCN(C(=O)/C=C/c3ccc(F)cc3)CC2)cc1
IC50 [9]: 0.0243 µM (active)
